Source: ChEMBL document CHEMBL1201862, “PubChem BioAssay data set” (2004)
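Test compounds were applied to cells in 96-well plates for 48 hours at 5 doses. GI50: concentration for 50% inhibition of growth.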 Active and inactive are the calls of the source. Cut-off read from the data, not from the text of the source: active = GI50 up to about 1.1 µM and inactive = higher.

Tests used:
Assay in all cases: inhibition of tumour cell growth, NCI panel, 48 h
IGROV-1 = test system: IGROV-1
NCI-H522 = test system: NCI-H522
SK-OV-3 = test system: SK-OV-3
SNB-75 = test system: SNB-75
NCI-H23 = test system: NCI-H23
RXF 393 = test system: RXF 393
SK-MEL-28 = test system: SK-MEL-28
SW-620 = test system: SW-620
SN12C = test system: SN12C
UO-31 = test system: UO-31
HCT-15 = test system: HCT-15
CCRF-CEM = test system: CCRF-CEM
SK-MEL-2 = test system: SK-MEL-2
SF-268 = test system: SF-268
LOX IMVI = test system: LOX IMVI
HOP-92 = test system: HOP-92
CAKI-1 = test system: CAKI-1
DU-145 = test system: DU-145

Structure (SMILES): O=C1c2c(c3c4ccccc4n(CC4CO4)c3c3[nH]c4ccccc4c23)C(=O)N1Cc1ccccc1 (stereo not given)
- GI50 (IGROV-1): 67 µM (inactive)
- GI50 (NCI-H522): 25.4 µM (inactive)
- GI50 (SK-OV-3): > 100 µM (inactive)
- GI50 (SNB-75): > 10 µM (inactive)
- GI50 (NCI-H23): > 100 µM (inactive)
- GI50 (RXF 393): > 100 µM (inactive)
- GI50 (SK-MEL-28): > 100 µM (inactive)
- GI50 (SW-620): 77.6 µM (inactive)
- GI50 (SN12C): > 100 µM (inactive)
- GI50 (UO-31): > 100 µM (inactive)
- GI50 (HCT-15): > 100 µM
- GI50 (CCRF-CEM): > 100 µM (inactive)
- GI50 (SK-MEL-2): > 100 µM (inactive)
- GI50 (SF-268): > 100 µM (inactive)
- GI50 (LOX IMVI): > 100 µM (inactive)
- GI50 (HOP-92): > 100 µM (inactive)
- GI50 (CAKI-1): > 100 µM (inactive)

Structure (SMILES): O=C1C2=Cc3ccccc3OC2(O)Oc2cc3ccccc3cc21 (stereo not given)
- GI50 (IGROV-1): 28.7 µM (inactive)
- GI50 (SK-OV-3): 56.5 µM (inactive)
- GI50 (SNB-75): 25.9 µM (inactive)
- GI50 (NCI-H23): > 100 µM (inactive)
- GI50 (DU-145): > 100 µM (inactive)
- GI50 (RXF 393): 58.1 µM (inactive)
- GI50 (SK-MEL-28): > 100 µM (inactive)
- GI50 (SW-620): > 100 µM (inactive)
- GI50 (SN12C): > 100 µM (inactive)
- GI50 (HCT-15): > 100 µM
- GI50 (CCRF-CEM): > 100 µM (inactive)
- GI50 (SK-MEL-2): > 100 µM (inactive)
- GI50 (SF-268): 36.1 µM (inactive)
- GI50 (LOX IMVI): > 100 µM (inactive)
- GI50 (HOP-92): 74.3 µM (inactive)
- GI50 (CAKI-1): > 100 µM (inactive)

Structure (SMILES): CCOC(=O)C(=O)N/N=C1\C(=O)Nc2ccccc21
- GI50 (IGROV-1): > 100 µM (inactive)
- GI50 (NCI-H522): > 100 µM (inactive)
- GI50 (SK-OV-3): > 100 µM (inactive)
- GI50 (SNB-75): > 100 µM (inactive)
- GI50 (NCI-H23): > 100 µM (inactive)
- GI50 (DU-145): > 100 µM (inactive)
- GI50 (RXF 393): > 100 µM (inactive)
- GI50 (SK-MEL-28): > 100 µM (inactive)
- GI50 (SW-620): > 100 µM (inactive)
- GI50 (SN12C): > 100 µM (inactive)
- GI50 (UO-31): > 100 µM (inactive)
- GI50 (HCT-15): > 100 µM
- GI50 (CCRF-CEM): > 100 µM (inactive)
- GI50 (SK-MEL-2): > 100 µM (inactive)
- GI50 (SF-268): > 100 µM (inactive)
- GI50 (LOX IMVI): > 100 µM (inactive)
- GI50 (CAKI-1): > 100 µM (inactive)

Structure (SMILES): Cc1cc2c(cc1C)[n+]([O-])c(C(=O)C/C(=N/NC(=S)NN)C(=O)Nc1cccc(C(F)(F)F)c1)c[n+]2[O-]
- GI50 (IGROV-1): > 100 µM (inactive)
- GI50 (NCI-H522): > 100 µM (inactive)
- GI50 (SK-OV-3): > 100 µM (inactive)
- GI50 (SNB-75): > 100 µM (inactive)
- GI50 (NCI-H23): > 100 µM (inactive)
- GI50 (SK-MEL-28): > 100 µM (inactive)
- GI50 (SW-620): > 100 µM (inactive)
- GI50 (SN12C): > 100 µM (inactive)
- GI50 (UO-31): > 100 µM (inactive)
- GI50 (HCT-15): > 100 µM
- GI50 (CCRF-CEM): 56.9 µM (inactive)
- GI50 (SK-MEL-2): > 100 µM (inactive)
- GI50 (SF-268): > 100 µM (inactive)
- GI50 (HOP-92): > 100 µM (inactive)
- GI50 (CAKI-1): > 100 µM (inactive)

Structure (SMILES): Cc1nc2cc3ccccc3cc2[nH]c1=O
- GI50 (IGROV-1): 47.9 µM (inactive)
- GI50 (NCI-H522): 59.4 µM (inactive)
- GI50 (SK-OV-3): > 100 µM (inactive)
- GI50 (SNB-75): 24.5 µM (inactive)
- GI50 (NCI-H23): 89.5 µM (inactive)
- GI50 (DU-145): > 100 µM (inactive)
- GI50 (RXF 393): 47.5 µM (inactive)
- GI50 (SK-MEL-28): > 100 µM (inactive)
- GI50 (SW-620): > 100 µM (inactive)
- GI50 (SN12C): > 100 µM (inactive)
- GI50 (UO-31): 54.8 µM (inactive)
- GI50 (HCT-15): 82 µM
- GI50 (CCRF-CEM): 51.2 µM (inactive)
- GI50 (SK-MEL-2): > 100 µM (inactive)
- GI50 (SF-268): 39.3 µM (inactive)
- GI50 (LOX IMVI): > 100 µM (inactive)
- GI50 (HOP-92): 26.1 µM (inactive)
- GI50 (CAKI-1): 38.1 µM (inactive)

Structure (SMILES): O=C(NNCc1ccccc1O)c1ccccc1O
- GI50 (IGROV-1): 1.13 µM (inactive)
- GI50 (NCI-H522): 2.28 µM (inactive)
- GI50 (SK-OV-3): 7.71 µM (inactive)
- GI50 (SNB-75): 21.9 µM (inactive)
- GI50 (NCI-H23): 9.84 µM (inactive)
- GI50 (DU-145): 3.22 µM (inactive)
- GI50 (RXF 393): 25.2 µM (inactive)
- GI50 (SK-MEL-28): 8.41 µM (inactive)
- GI50 (SW-620): 3.48 µM (inactive)
- GI50 (SN12C): 4.03 µM (inactive)
- GI50 (UO-31): 1.92 µM (inactive)
- GI50 (HCT-15): 1.19 µM
- GI50 (CCRF-CEM): 0.735 µM (active)
- GI50 (SK-MEL-2): 4.65 µM (inactive)
- GI50 (LOX IMVI): 3.09 µM (inactive)
- GI50 (HOP-92): 33 µM (inactive)
- GI50 (CAKI-1): 9.55 µM (inactive)
